{
  "source": "PubChem BioAssay (NCI)",
  "assay_in_all_cases": "NCI-60 cell line screen, 48 h",
  "key": {"COLO 205 colon": {"tested_on": "COLO 205 colon"}, "HOP-62 NSCLC": {"tested_on": "HOP-62 NSCLC"}, "UO-31 renal": {"tested_on": "UO-31 renal"}, "NCI-H522 lung": {"tested_on": "NCI-H522 lung"}, "NCI-H23 lung": {"tested_on": "NCI-H23 lung"}, "SF-268 CNS": {"tested_on": "SF-268 CNS"}, "ACHN renal": {"tested_on": "ACHN renal"}, "BT-549 breast": {"tested_on": "BT-549 breast"}, "SN12C renal": {"tested_on": "SN12C renal"}, "A549 NSCLC": {"tested_on": "A549 NSCLC"}, "HOP-92 NSCLC": {"tested_on": "HOP-92 NSCLC"}, "OVCAR-3 ovarian": {"tested_on": "OVCAR-3 ovarian"}, "SK-MEL-2 melanoma": {"tested_on": "SK-MEL-2 melanoma"}, "HL-60(TB) leukemia": {"tested_on": "HL-60(TB) leukemia"}, "HCC-2998 colon": {"tested_on": "HCC-2998 colon"}, "HCT-15 colon": {"tested_on": "HCT-15 colon"}, "MALME-3M melanoma": {"tested_on": "MALME-3M melanoma"}, "MDA-MB-468 breast": {"tested_on": "MDA-MB-468 breast"}, "PC-3 prostate": {"tested_on": "PC-3 prostate"}, "786-0 renal": {"tested_on": "786-0 renal"}, "RXF 393 renal": {"tested_on": "RXF 393 renal"}, "MDA-MB-435": {"tested_on": "MDA-MB-435"}, "SF-539 CNS": {"tested_on": "SF-539 CNS"}, "MCF7 breast": {"tested_on": "MCF7 breast"}, "EKVX NSCLC": {"tested_on": "EKVX NSCLC"}, "LOX IMVI melanoma": {"tested_on": "LOX IMVI melanoma"}, "IGROV1 ovarian": {"tested_on": "IGROV1 ovarian"}, "TK-10 renal": {"tested_on": "TK-10 renal"}, "OVCAR-8 ovarian": {"tested_on": "OVCAR-8 ovarian"}, "OVCAR-5 ovarian": {"tested_on": "OVCAR-5 ovarian"}, "MDA-MB-231 breast": {"tested_on": "MDA-MB-231 breast"}, "NCI/ADR-RES ovarian": {"tested_on": "NCI/ADR-RES ovarian"}, "SF-295 CNS": {"tested_on": "SF-295 CNS"}, "CAKI-1 renal": {"tested_on": "CAKI-1 renal"}, "KM12 colon": {"tested_on": "KM12 colon"}, "SK-MEL-28 melanoma": {"tested_on": "SK-MEL-28 melanoma"}, "SK-OV-3 ovarian": {"tested_on": "SK-OV-3 ovarian"}, "UACC-257 melanoma": {"tested_on": "UACC-257 melanoma"}, "DU-145 prostate": {"tested_on": "DU-145 prostate"}, "SK-MEL-5 melanoma": {"tested_on": "SK-MEL-5 melanoma"}, "SNB-19 CNS": {"tested_on": "SNB-19 CNS"}, "UACC-62 melanoma": {"tested_on": "UACC-62 melanoma"}, "A498 renal": {"tested_on": "A498 renal"}, "OVCAR-4 ovarian": {"tested_on": "OVCAR-4 ovarian"}},
  "note": "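Five concentrations, 48 hours, 96-well plates. GI50 marks 50% less growth. At the TGI there is no net growth.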",
  "data": [
    {"smiles": "Clc1ccc2c(N/N=C/c3c[nH]c4ccc(Br)cc34)ccnc2c1", "values": [
      {"measurement": "GI50", "setting": "COLO 205 colon", "value": 0.358, "unit": "µM"},
      {"measurement": "TGI", "setting": "COLO 205 colon", "value": 1.29, "unit": "µM"},
      {"measurement": "GI50", "setting": "HOP-62 NSCLC", "value": 1.58, "unit": "µM"},
      {"measurement": "TGI", "setting": "HOP-62 NSCLC", "value": 3.1, "unit": "µM"},
      {"measurement": "GI50", "setting": "UO-31 renal", "value": 1.44, "unit": "µM"},
      {"measurement": "TGI", "setting": "UO-31 renal", "value": 2.77, "unit": "µM"},
      {"measurement": "GI50", "setting": "NCI-H522 lung", "value": 1.79, "unit": "µM"},
      {"measurement": "TGI", "setting": "NCI-H522 lung", "value": 3.37, "unit": "µM"},
      {"measurement": "GI50", "setting": "NCI-H23 lung", "value": 1.11, "unit": "µM"},
      {"measurement": "TGI", "setting": "NCI-H23 lung", "value": 2.37, "unit": "µM"},
      {"measurement": "GI50", "setting": "SF-268 CNS", "value": 1.7, "unit": "µM"},
      {"measurement": "TGI", "setting": "SF-268 CNS", "value": 3.53, "unit": "µM"},
      {"measurement": "GI50", "setting": "ACHN renal", "value": 1.66, "unit": "µM"},
      {"measurement": "TGI", "setting": "ACHN renal", "value": 3.04, "unit": "µM"},
      {"measurement": "GI50", "setting": "BT-549 breast", "value": 1.48, "unit": "µM"},
      {"measurement": "TGI", "setting": "BT-549 breast", "value": 2.84, "unit": "µM"},
      {"measurement": "GI50", "setting": "SN12C renal", "value": 1.75, "unit": "µM"},
      {"measurement": "TGI", "setting": "SN12C renal", "value": 3.17, "unit": "µM"},
      {"measurement": "GI50", "setting": "A549 NSCLC", "value": 1.58, "unit": "µM"},
      {"measurement": "TGI", "setting": "A549 NSCLC", "value": 3.06, "unit": "µM"},
      {"measurement": "GI50", "setting": "HOP-92 NSCLC", "value": 1.33, "unit": "µM"},
      {"measurement": "TGI", "setting": "HOP-92 NSCLC", "value": 2.74, "unit": "µM"},
      {"measurement": "GI50", "setting": "OVCAR-3 ovarian", "value": 1.66, "unit": "µM"},
      {"measurement": "TGI", "setting": "OVCAR-3 ovarian", "value": 3.06, "unit": "µM"},
      {"measurement": "GI50", "setting": "SK-MEL-2 melanoma", "value": 1.79, "unit": "µM"},
      {"measurement": "TGI", "setting": "SK-MEL-2 melanoma", "value": 3.25, "unit": "µM"},
      {"measurement": "GI50", "setting": "HL-60(TB) leukemia", "value": 0.469, "unit": "µM"},
      {"measurement": "TGI", "setting": "HL-60(TB) leukemia", "value": 1.92, "unit": "µM"},
      {"measurement": "GI50", "setting": "HCC-2998 colon", "value": 0.762, "unit": "µM"},
      {"measurement": "TGI", "setting": "HCC-2998 colon", "value": 2.06, "unit": "µM"},
      {"measurement": "GI50", "setting": "HCT-15 colon", "value": 0.182, "unit": "µM"},
      {"measurement": "TGI", "setting": "HCT-15 colon", "value": 0.343, "unit": "µM"},
      {"measurement": "GI50", "setting": "MALME-3M melanoma", "value": 1.6, "unit": "µM"},
      {"measurement": "TGI", "setting": "MALME-3M melanoma", "value": 3.01, "unit": "µM"},
      {"measurement": "GI50", "setting": "MDA-MB-468 breast", "value": 1.24, "unit": "µM"},
      {"measurement": "TGI", "setting": "MDA-MB-468 breast", "value": 2.57, "unit": "µM"},
      {"measurement": "GI50", "setting": "PC-3 prostate", "value": 1.31, "unit": "µM"},
      {"measurement": "TGI", "setting": "PC-3 prostate", "value": 2.76, "unit": "µM"},
      {"measurement": "GI50", "setting": "786-0 renal", "value": 1.44, "unit": "µM"},
      {"measurement": "TGI", "setting": "786-0 renal", "value": 2.88, "unit": "µM"},
      {"measurement": "GI50", "setting": "RXF 393 renal", "value": 1.42, "unit": "µM"},
      {"measurement": "TGI", "setting": "RXF 393 renal", "value": 2.79, "unit": "µM"},
      {"measurement": "GI50", "setting": "MDA-MB-435", "value": 1.69, "unit": "µM"},
      {"measurement": "TGI", "setting": "MDA-MB-435", "value": 3.1, "unit": "µM"},
      {"measurement": "GI50", "setting": "SF-539 CNS", "value": 1.66, "unit": "µM"},
      {"measurement": "TGI", "setting": "SF-539 CNS", "value": 3.05, "unit": "µM"},
      {"measurement": "GI50", "setting": "MCF7 breast", "value": 0.952, "unit": "µM"},
      {"measurement": "TGI", "setting": "MCF7 breast", "value": 2.35, "unit": "µM"},
      {"measurement": "GI50", "setting": "EKVX NSCLC", "value": 1.16, "unit": "µM"},
      {"measurement": "TGI", "setting": "EKVX NSCLC", "value": 2.4, "unit": "µM"},
      {"measurement": "GI50", "setting": "LOX IMVI melanoma", "value": 0.173, "unit": "µM"},
      {"measurement": "TGI", "setting": "LOX IMVI melanoma", "value": 0.33, "unit": "µM"},
      {"measurement": "GI50", "setting": "IGROV1 ovarian", "value": 1.65, "unit": "µM"},
      {"measurement": "TGI", "setting": "IGROV1 ovarian", "value": 3.08, "unit": "µM"},
      {"measurement": "GI50", "setting": "TK-10 renal", "value": 2.27, "unit": "µM"},
      {"measurement": "TGI", "setting": "TK-10 renal", "value": 3.78, "unit": "µM"},
      {"measurement": "GI50", "setting": "OVCAR-8 ovarian", "value": 1.8, "unit": "µM"},
      {"measurement": "TGI", "setting": "OVCAR-8 ovarian", "value": 3.35, "unit": "µM"},
      {"measurement": "GI50", "setting": "OVCAR-5 ovarian", "value": 1.53, "unit": "µM"},
      {"measurement": "TGI", "setting": "OVCAR-5 ovarian", "value": 2.88, "unit": "µM"},
      {"measurement": "GI50", "setting": "MDA-MB-231 breast", "value": 1.24, "unit": "µM"},
      {"measurement": "TGI", "setting": "MDA-MB-231 breast", "value": 2.56, "unit": "µM"},
      {"measurement": "GI50", "setting": "NCI/ADR-RES ovarian", "value": 1.41, "unit": "µM"},
      {"measurement": "TGI", "setting": "NCI/ADR-RES ovarian", "value": 2.84, "unit": "µM"},
      {"measurement": "GI50", "setting": "SF-295 CNS", "value": 1.61, "unit": "µM"},
      {"measurement": "TGI", "setting": "SF-295 CNS", "value": 2.99, "unit": "µM"},
      {"measurement": "GI50", "setting": "CAKI-1 renal", "value": 1.46, "unit": "µM"},
      {"measurement": "TGI", "setting": "CAKI-1 renal", "value": 2.8, "unit": "µM"},
      {"measurement": "GI50", "setting": "KM12 colon", "value": 1.8, "unit": "µM"},
      {"measurement": "TGI", "setting": "KM12 colon", "value": 3.34, "unit": "µM"},
      {"measurement": "GI50", "setting": "SK-MEL-28 melanoma", "value": 1.59, "unit": "µM"},
      {"measurement": "TGI", "setting": "SK-MEL-28 melanoma", "value": 2.95, "unit": "µM"},
      {"measurement": "GI50", "setting": "SK-OV-3 ovarian", "value": 1.57, "unit": "µM"},
      {"measurement": "TGI", "setting": "SK-OV-3 ovarian", "value": 3.03, "unit": "µM"},
      {"measurement": "GI50", "setting": "UACC-257 melanoma", "value": 1.58, "unit": "µM"},
      {"measurement": "TGI", "setting": "UACC-257 melanoma", "value": 2.97, "unit": "µM"},
      {"measurement": "GI50", "setting": "DU-145 prostate", "value": 0.924, "unit": "µM"},
      {"measurement": "TGI", "setting": "DU-145 prostate", "value": 2.14, "unit": "µM"},
      {"measurement": "GI50", "setting": "SK-MEL-5 melanoma", "value": 1.5, "unit": "µM"},
      {"measurement": "TGI", "setting": "SK-MEL-5 melanoma", "value": 2.83, "unit": "µM"},
      {"measurement": "GI50", "setting": "SNB-19 CNS", "value": 1.54, "unit": "µM"},
      {"measurement": "TGI", "setting": "SNB-19 CNS", "value": 2.89, "unit": "µM"},
      {"measurement": "GI50", "setting": "UACC-62 melanoma", "value": 1.66, "unit": "µM"},
      {"measurement": "TGI", "setting": "UACC-62 melanoma", "value": 3.05, "unit": "µM"},
      {"measurement": "GI50", "setting": "A498 renal", "value": 1.87, "unit": "µM"},
      {"measurement": "TGI", "setting": "A498 renal", "value": 3.38, "unit": "µM"},
      {"measurement": "GI50", "setting": "OVCAR-4 ovarian", "value": 1.77, "unit": "µM"},
      {"measurement": "TGI", "setting": "OVCAR-4 ovarian", "value": 3.38, "unit": "µM"}
    ]}
  ]
}
